Reference: US10500222B2, “Compositions and methods relating to treatment of infection” (Wayne State University, priority 2015, dated 2019)

Experiments:
Type in all cases: in vivo, C57BL/6 (B6) mice
Conditions in all cases: vs PBS
[1] = test system: P. aeruginosa ATCC strain 19660; assay: Quantification of viable bacteria (plate count), strain 19660 infection
Experimental: (§1) The left eyes of B6 mice (n=5/group/time) were injected with 5 μl of 2 μg/μl glycyrrhizin (GLY) (Sigma-Aldrich, St. Louis, Mo.) or PBS (control) subconjunctivally, one day before infection. Similar treatment was done using carbenoxolone (CBX) (Sigma-Aldrich, St. Louis, Mo.). All mice were injected intraperitoneally (IP) at 1 and 3 days p.i. with 100 μl of GLY (2 μg/μl) or CBX (1 μg/μl). PBS served as control for all these experiments. In a separate similar experiment mice were treated one day before infection with GLY subconjunctivally and injected intraperitoneally (i.p.) with GLY plus recombinant (r) HMGB1 (1 μg/100 μl) or GLY plus PBS. IP injections were similarly given at 1 and 3 days p.i. In an additional experiment, KEI 1025 infected B6 mice were treated with 5 μl of 2 μg/μl GLY subconjunctivally at 6 hours p.i. and injected intraperitoneally at 1 and 3 days p.i. with 100 μl of GLY (2 μg/μl).
Mice were sacrificed at 3 and 5 days p.i. and KEI 1025 or ATCC strain 19660 infected corneas from GLY, CBX or PBS (or GLY+/−rHMGB1) treated B6 mice were harvested (n=5/group/time). Each cornea was homogenized in 1 ml of sterile saline (0.85% NaCl, pH 7.4) containing 0.25% BSA. A 100 μl of the corneal homogenate was serially diluted (1:10) in sterile saline containing 0.25% BSA. […] Plates were incubated overnight at 37° C. and viable bacteria manually counted. […]

[2] = test system: neutrophils in the cornea, P. aeruginosa ATCC strain 19660; assay: Myeloperoxidase (MPO) assay, strain 19660 infection
Experimental: as §1
This assay was used to quantitate neutrophils in the cornea of GLY and PBS treated mice (n=5/group/time) infected with KEI 1025 or ATCC strain 19660. Individual corneas were removed at 3 and 5 days p.i. and homogenized in 1.0 ml of 50 mM phosphate buffer (pH 6.0) containing 0.5% HTAB. […] The change in absorbency was monitored at 460 nm for 5 min at 30 sec intervals. The slope of the line was determined for each sample and used to calculate units of MPO/cornea. […]

[3] = test system: protein levels in P. aeruginosa ATCC strain 19660 infected cornea; assay: ELISA of corneal proteins, strain 19660 infection
Experimental: as §1
KEI 1025 or ATCC strain 19660 infected GLY or PBS treated, B6 mice (n=5/group/time) were sacrificed at 3 and 5 days p.i. and normal and infected corneas harvested. To quantify IL-1β and CXCL2 proteins, individual corneas were homogenized in 1 ml of 50 mM potassium phosphate buffer (pH 6.0) containing 0.5% HTAB (hexadecyltrimethylammonium bromide, Sigma). To quantify HMGB1, cathelicidin-related antimicrobial peptide (CRAMP), mouse beta defensin 2 (mBD2) and mouse beta defensin 3 (mBD3) protein levels, individual corneas were homogenized in 500 μl of PBS containing 0.1% Tween 20 (Sigma) and protease inhibitors (Roche, Indianapolis, Ind.). Corneal homogenates were centrifuged at 12,000 g for 10 min. A 50 μl aliquot of each supernatant was assayed in duplicate to quantify IL-1β, CXCL2, HMGB1 and mBD2 proteins. A 100 μl aliquot of CRAMP and mBD3 supernatant was assayed in duplicate to quantify corresponding protein levels. Undiluted supernatant aliquots were used to quantify all proteins except CXCL2 (1:2 dilution) and HMGB1 (1:5 dilution). An HMGB1 ELISA kit was purchased from Chondrex Inc., Redmond, Wash. CRAMP, mBD2 and mBD3 ELISA kits were purchased from MyBioSource, Inc., San Diego, Calif. All other ELISA kits were purchased from R&D Systems, Minneapolis, Minn. Assays were run following the manufacturer's instructions. Sensitivities of the assays were: 2.31 […] (mBD3).

## CC1(C)[C@@H](O[C@H]2O[C@H](C(=O)O)[C@@H](O)[C@H](O)[C@H]2O[C@@H]2O[C@H](C(=O)O)[C@@H](O)[C@H](O)[C@H]2O)CC[C@]2(C)[C@H]3C(=O)C=C4[C@@H]5C[C@@](C)(C(=O)O)CC[C@]5(C)CC[C@@]4(C)[C@]3(C)CC[C@@H]12 [GLY, glycyrrhizin]
[1]; 3 days p.i.
  bacterial load (plate count): significantly reduced
[1]; 5 days p.i.
  bacterial load (plate count): significantly reduced
[2]; 3 days p.i.
  neutrophils in the cornea (MPO assay): significant decrease in neutrophils
[2]; 5 days p.i.
  neutrophils in the cornea (MPO assay): significant decrease in neutrophils
[3]; strain 19660, 3 days p.i.
  CXCL2 protein levels: downregulated significantly
[3]; strain 19660, 5 days p.i.
  CXCL2 protein levels: downregulated significantly
[3]; strain 19660, normal cornea and infected groups
  HMGB1 protein: no significant differences
[3]; strain 19660 experiment, normal cornea
  CXCL2 protein: No differences
